Results published in patent publication US20020155519A1 (priority 1997, published 2002).
Entries after “also recorded” stand apart in the source; their conditions may differ. Read-outs that look alike come from different tables or passages of the source.

Legend:
[1] = test system: human blood bacterium (HBB); test: Resistance of HBB to detergents and disinfectants; format: cell-based; settings: for resistance of HBB to detergent (lysis): 0.1%
[2] = test system: human blood bacterium (HBB); format: cell-based
Method: Normally 1 ml of serum was added to 9 ml of medium. Larger flasks with a proportionately larger amount of serum and medium are used to produce bacteria in quantity. Modulators might be added to some flasks in 10× or higher concentration (corresponding to addition of 1 ml or less). When examining the effect of modulators, control flasks were prepared similarly without the addition of the modulator. Levels were observed microscopically (inverted phase microscope, observing the number of organisms per field crudely or by actual count) after incubation, typically at several points in time.
When multiple comparisons were done at once, they were done in 12 well or 24 well cell culture plates, most often the latter. With the latter, typically 1 ml of medium inoculated with serum is added to each well, with modulators added at 10× or higher concentration (0.1 ml or less). When comparisons are done in well plates, control wells without any additions are included. Levels were observed microscopically (inverted phase microscope) after incubation, typically at several points in time. The well plate cultures were also used for antibiotic sensitivity testing.
These procedures are those known in the art and include uses of antibodies and DNA probes, Western and Southern blots, PCR and the diagnostic kits therefor. First, organisms can be quantified by culture. […] If a means is found to immobilize the bacteria to grow isolated colonies, counts will be more accurate. Quantification is used to follow the progress of treatment and to correlate HBB levels with specific disease syndromes. Quantification is used also for antibiotic sensitivity measurements, comparing the level of growth with antibiotic treatment to the level of growth without treatment. Such antibiotic sensitivity measurements establish the basis for the clinical choice of antibiotic drugs.

[3] = test system: yeast-like forms of HBB; test: Suppression of yeast-like forms of HBB by antifungal agents; format: cell-based, human blood bacterium (HBB)
[4] = test system: HBB; format: in vivo, human; settings: uncontrolled patient trials
Method: Experiments have been conducted investigating the correlation of the presence of or increased presence of HBB with the clinical symptoms of three autoimmune diseases, and the results of instituting an antibiotic regimen in patients. […] All patients were cultured repeatedly to determine levels of HBB. The antibiotic treatment regimen was based on antibiotic sensitivities done on a pilot series of cultures and on the known properties of the organism, which clearly requires long-term, continuous treatment to address its very slow growth rate. This approach differs from usual treatment regimens for other bacterial infections. Neither the subjects nor the investigators were blind, and there was no untreated or placebo-treated control group.
Antibiotic treatment consisted of one or more of the following three antibiotic regimens: (1) penicillin V, 500 mg four times a day, plus probenecid, 500 mg four times a day, plus Augmentin 500 mg four times a day; (2) ciprofloxacin, 500 mg three times a day; or (3) isoniazid, 100 mg three times a day. Most patients received a combination of two of the regimens concurrently.
A regime or schedule is continued to optimize effectiveness, balanced against negative effects of treatment.

[5] = test system: extracellular exudate and the bacteria (HBB); test: Lectin binding to HBB exudate (slime) and bacteria; set-up: species or system human blood bacterium (HBB)
Source text: The amount of the exudate produced is strongly influenced by or dependent upon the composition of the culture medium. The current medium formulae (L and O) have been designed to reduce slime production. In the original, crude medium, a centrifuged culture may consist of more than 10% of this gel by volume. In the L and O media, older cultures of HBB may develop a thin layer of gel that traps the cells and makes them adherent to the culture flask.

Question: With CCCCCCCCCCCCOS(=O)(=O)[O-].[Na+] [SDS] as the molecule, how does the “resistance of HBB to detergent (lysis)” value [1] read?
Answer: does cause lysis

Question: CC[C@H]1OC(=O)[C@H](C)[C@@H](O[C@H]2C[C@@](C)(OC)[C@@H](O)[C@H](C)O2)[C@H](C)[C@@H](O[C@@H]2O[C@H](C)C[C@H](N(C)C)[C@H]2O)[C@](C)(OC)C[C@@H](C)C(=O)[C@H](C)[C@@H](O)[C@]1(C)O [clarithromycin] was tested. Which “antibiotic sensitivity of HBB strains/isolates in culture” value ([2]; concentration not printed) did it give?
Answer: some strains show sensitivity; also recorded: often stimulate growth

Question: What about the “antibiotic sensitivity of HBB strains/isolates in culture” value ([2]; concentration not printed, listed as Clarithromycin) of the same molecule?
Answer: appears more effective in culture

Question: Which “observed antibiotic and antifungal sensitivities (outcome, number of isolates)” value [2] does the source give for Clc1ccccc1C(c1ccccc1)(c1ccccc1)n1ccnc1 [clotrimazol] here?
Answer: no effect (1 isolate)

Question: What about the “suppression of yeast-like forms” value [3] of the same molecule?
Answer: no suppression

Question: With Cc1onc(-c2ccccc2Cl)c1C(=O)N[C@@H]1C(=O)N2[C@@H]1SC(C)(C)[C@@H]2C(=O)O [cloxacillin] as the molecule, how does the “observed antibiotic and antifungal sensitivities (outcome, number of isolates)” value ([2]; 2 μg/ml) read?
Answer: no effect (16 isolates); also recorded: sensitive (5 isolates); also recorded: growth stimulated (6 isolates)

Question: And the “antibiotic sensitivity of HBB strains/isolates in culture” value ([2]; concentration not printed)?
Answer: occasional isolates show higher sensitivity

Question: Which “observed antibiotic and antifungal sensitivities (outcome, number of isolates)” value [2] does the source give for Nc1ccc(S(=O)(=O)c2ccc(N)cc2)cc1 [dapsone] here?
Answer: no effect (1 isolate)

Question: Cc1onc(-c2c(Cl)cccc2Cl)c1C(=O)N[C@@H]1C(=O)N2[C@@H]1SC(C)(C)[C@@H]2C(=O)O [dicloxacillin] was tested. Which “clinical response in patients (in words)” value [4] did it give?
Answer: A few patients have done better

Question: For CC[C@H]1OC(=O)[C@H](C)[C@@H](O[C@H]2C[C@@](C)(OC)[C@@H](O)[C@H](C)O2)[C@H](C)[C@@H](O[C@@H]2O[C@H](C)C[C@H](N(C)C)[C@H]2O)[C@](C)(O)C[C@@H](C)C(=O)[C@H](C)[C@@H](O)[C@]1(C)O [erythromycin], which “antibiotic sensitivity of HBB strains/isolates in culture” value [2] is on record?
Answer: resistant

Question: How did the “resistance of HBB to disinfectant” value [1] turn out when Oc1c(Cl)cc(Cl)c(Cl)c1Cc1c(O)c(Cl)cc(Cl)c1Cl [hexachlorophene] was run?
Answer: resistant

Question: For CCN(CCO)CCCC(C)Nc1ccnc2cc(Cl)ccc12 (stereo not shown) [hydroxychloroquin], which “antibiotic sensitivity of HBB strains/isolates in culture” value ([2]; concentration not printed) is on record?
Answer: synergistic effect with a few isolates

Question: With NNC(=O)c1ccncc1 [isoniazid] as the molecule, how does the “observed antibiotic and antifungal sensitivities (outcome, number of isolates)” value ([2]; 2 μg/ml) read?
Answer: no effect (24 isolates); also recorded: sensitive (5 isolates); also recorded: growth stimulated (6 isolates)

Question: What about the “antibiotic sensitivity of HBB strains/isolates in culture” value ([2]; concentration not printed) of the same molecule?
Answer: some isolates are sensitive

Question: Clc1ccc(COC(Cn2ccnc2)c2ccc(Cl)cc2Cl)c(Cl)c1 (stereo not shown) [miconazol] was tested. Which “observed antibiotic and antifungal sensitivities (outcome, number of isolates)” value [2] did it give?
Answer: no effect (1 isolate)

Question: What about the “suppression of yeast-like forms” value [3] of the same molecule?
Answer: no suppression

Question: How did the “resistance of HBB to detergent (lysis)” value [1] turn out when CCCCCCCCCCCCN(C)CC(=O)O [n-laurylsarcosine] was run?
Answer: resist

Question: With CCn1cc(C(=O)O)c(=O)c2ccc(C)nc21 [nalidixic acid] as the molecule, how does the “observed antibiotic and antifungal sensitivities (outcome, number of isolates)” value ([2]; 4 μg/ml) read?
Answer: no effect (1 isolate)

Question: With C[C@@H]1[C@H](O)[C@@H](C)/C=C/C=C/CC/C=C/C=C/C=C/C=C/C(O[C@H]2O[C@H](C)[C@@H](O)[C@H](N)[C@@H]2O)CC2O[C@](O)(CC(O)C(O)CCC(O)CC(O)CC(O)CC(=O)O[C@H]1C)CC(O)C2C(=O)O (stereo partly shown) [nystatin] as the molecule, how does the “observed antibiotic and antifungal sensitivities (outcome, number of isolates)” value ([2]; saturated) read?
Answer: no effect (1 isolate)

Question: And the “suppression of yeast-like forms” value [3]?
Answer: no suppression

Question: For Cc1onc(-c2ccccc2)c1C(=O)N[C@@H]1C(=O)N2[C@@H]1SC(C)(C)[C@@H]2C(=O)O [oxacillin], which “antibiotic sensitivity of HBB strains/isolates in culture” value [2] is on record?
Answer: occasional isolates show higher sensitivity

Question: For CC1(C)S[C@@H]2[C@H](NC(=O)Cc3ccccc3)C(=O)N2[C@H]1C(=O)O [penicillin G], which “antibiotic sensitivity of HBB strains/isolates in culture” value ([2]; concentration not printed) is on record?
Answer: relatively sensitive

Question: CC1(C)S[C@@H]2[C@H](NC(=O)COc3ccccc3)C(=O)N2[C@H]1C(=O)O [penicillin V] was tested. Which “observed antibiotic and antifungal sensitivities (outcome, number of isolates)” value ([2]; 1-2 μg/ml) did it give?
Answer: no effect (27 isolates); also recorded: sensitive (17 isolates); also recorded: growth stimulated (4 isolates)

Question: What about the “antibiotic sensitivity of HBB strains/isolates in culture” value ([2]; concentration not printed) of the same molecule?
Answer: relatively sensitive

Question: How did the “observed antibiotic and antifungal sensitivities (outcome, number of isolates)” value [2] turn out when COc1cc(NC(C)CCCN)c2ncccc2c1 (stereo not shown) [primaquine] was run?
Answer: no effect (31 isolates); also recorded: sensitive (15 isolates); also recorded: growth stimulated (1 isolate)

Question: For CCN(CC)CCCC(C)Nc1c2ccc(Cl)cc2nc2ccc(OC)cc12 (stereo not shown) [quinacrine], which “observed antibiotic and antifungal sensitivities (outcome, number of isolates)” value [2] is on record?
Answer: no effect (1 isolate)

Question: What does the source list for O=C([O-])c1ccccc1.[Na+] [sodium benzoate]?
Answer: observed antibiotic and antifungal sensitivities (outcome, number of isolates) ([2]; 50 μg/ml): no effect (1 effect); suppression of yeast-like forms [3]: no suppression

Question: How did the “observed antibiotic and antifungal sensitivities (outcome, number of isolates)” value ([2]; 50-250 μg/ml) turn out when CCC(=O)[O-].[Na+] [sodium propionate] was run?
Answer: no effect (2 isolates)

Question: What about the “suppression of yeast-like forms” value [3] of the same molecule?
Answer: no suppression

Question: Which “observed antibiotic and antifungal sensitivities (outcome, number of isolates)” value ([2]; 50 μg/ml) does the source give for CCCCCCCCCCC(=O)[O-].[Na+] [sodium undecylate] here?
Answer: no effect (1 isolate)

Question: And the “suppression of yeast-like forms” value [3]?
Answer: no suppression

Question: Which “antibiotic sensitivity of HBB strains/isolates in culture” value [2] does the source give for Cc1cc(NS(=O)(=O)c2ccc(N)cc2)no1 [sulfamethoxazole] here?
Answer: no effect (1 isolate)

Question: With Nc1ccc(S(=O)(=O)Nc2ccccn2)cc1 [sulfapyridine] as the molecule, how does the “observed antibiotic and antifungal sensitivities (outcome, number of isolates)” value [2] read?
Answer: no effect (6 isolates); also recorded: no effect (1 isolate)

Question: How did the “observed antibiotic and antifungal sensitivities (outcome, number of isolates)” value [2] turn out when O=C(O)c1cc(/N=N/c2ccc(S(=O)(=O)Nc3ccccn3)cc2)ccc1O [sulfasalazine] was run?
Answer: no effect (6 isolates); also recorded: no effect (isolate)

Question: With Cc1cccc(N(C)C(=S)Oc2ccc3ccccc3c2)c1 [tolnaftate] as the molecule, how does the “observed antibiotic and antifungal sensitivities (outcome, number of isolates)” value ([2]; 2 μg/ml) read?
Answer: no effect (1 isolate)

Question: Which results are given for COc1cc(Cc2cnc(N)nc2N)cc(OC)c1OC [trimethoprim]?
Answer: antibiotic sensitivity of HBB strains/isolates in culture [2]: resistance; observed antibiotic and antifungal sensitivities (outcome, number of isolates) [2]: no effect (1 isolate)

Question: How did the “observed antibiotic and antifungal sensitivities (outcome, number of isolates)” value [2] turn out when CN[C@H](CC(C)C)C(=O)N[C@H]1C(=O)N[C@@H](CC(N)=O)C(=O)N[C@H]2C(=O)N[C@H]3C(=O)N[C@H](C(=O)N[C@H](C(=O)O)c4cc(O)cc(O)c4-c4cc3ccc4O)[C@H](O)c3ccc(c(Cl)c3)Oc3cc2cc(c3O[C@@H]2O[C@H](CO)[C@@H](O)[C@H](O)[C@H]2O[C@H]2C[C@](C)(N)[C@H](O)[C@H](C)O2)Oc2ccc(cc2Cl)[C@H]1O [vancomycin] was run?
Answer: no effect (1 isolate)

Question: With NP-40 as the molecule, how does the “resistance of HBB to detergent (lysis)” value [1] read?
Answer: resist

Question: How did the “resistance of HBB to detergent (lysis)” value [1] turn out when Triton X was run?
Answer: resist

Question: Which “resistance of HBB to detergent (lysis)” value [1] does the source give for Tween-20 here?
Answer: resist

Question: amphoptericin was tested. Which “observed antibiotic and antifungal sensitivities (outcome, number of isolates)” value ([2]; 0.25 μg/ml) did it give?
Answer: no effect (1 isolate)

Question: And the “suppression of yeast-like forms” value [3]?
Answer: no suppression

Question: How did the “resistance of HBB to disinfectant” value ([1]; 1:1000) turn out when benzalkonium chloride was run?
Answer: resistant

Question: With gentamycin as the molecule, how does the “observed antibiotic and antifungal sensitivities (outcome, number of isolates)” value ([2]; 2 μg/ml) read?
Answer: no effect (1 isolate)

Question: With penicillin as the molecule, how does the “clinical response in patients (in words)” value [4] read?
Answer: not effective for a sustained response in most patients; also recorded: short-term response in many

Question: How did the “binding of lectin to exudate and bacteria” value [5] turn out when wheat germ agglutinin was run?
Answer: bind

B1: peanut agglutinin: lectin binding other sugars (protein, UniProt P02872 24-273, looked up)
Galactose-binding lectin: AETVSFNFNSFSEGNPAINFQGDVTVLSNGNIQLTNLNKVNSVGRVLYAMPVRIWSSATGNVASFLTSFSFEMKDIKDYDPADGIIFFIAPEDTQIPAGSIGGGTLGVSDTKGAGHFVGVEFDTYSNSEYNDPPTDHVGIDVNSVDSVKTVPWNSVSGAVVKVTVIYDSSTKTLSVAVTNDNGDITTIAQVVDLKAKLPERVKFGFSASGSLGGRQIHLIRSWSFTSTLITTTRRSIDNNEKKIMNMASA
Question: For B1, which “binding of lectin to exudate and bacteria” value [5] is on record?
Answer: do not appear to bind
